Reference: US10954215B2, “Compounds as modulators of ROR gamma” (Boehringer Ingelheim International GmbH, priority 2016, dated 2021)

What follows are compounds tested against T1, RORγ (Homo sapiens, UniProt P51449) (assay: Reporter Gene Assay (RGA): inhibition of RORγ transactivation of a luciferase reporter in transiently transfected HEK 293 cells). Settings: HEK 293 cells cotransfected with pGL4.3 luc2P/GAL4UAS and pBIND Gal4DBD hRORC LBD; 20-24 h incubation; luciferase luminescence.
T1 construct: expressed in transfected cells; host or cells: HEK 293 cells, transiently transfected
T1 sequence (P51449 269-508 limits assumed): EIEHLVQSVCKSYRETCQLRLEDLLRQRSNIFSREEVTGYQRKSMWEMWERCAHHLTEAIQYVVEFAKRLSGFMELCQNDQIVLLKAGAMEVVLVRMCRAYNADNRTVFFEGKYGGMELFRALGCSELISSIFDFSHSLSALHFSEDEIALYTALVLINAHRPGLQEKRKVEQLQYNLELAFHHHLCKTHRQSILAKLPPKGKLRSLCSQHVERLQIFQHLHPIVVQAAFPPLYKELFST
Type: cell-based
Procedure: Reporter Gene Assay (RGA)
A nuclear receptor transactivation assay is performed to quantitate the ability of test compounds to inhibit RORγ transactivation of a luciferase reporter. A similar assay is described in: Khan et al., Bioorganic & Medicinal Chemistry Letters 23 (2013), 532-536. The system uses transiently transfected HEK 293 cells cotransfected with two plasmids (pGL4.3, luc2P/GAL4UAS/Hygro, and pBIND, Gal4DBD hRORC LBD1-3). The positive control is co-transiently transfected with both plasmids, and the negative control contains the pGL4.3 promoter sequence. Assays are assembled in 384 well plates where transiently transfected cells and test compound at varying concentrations are incubated for 20-24 h. The next day, assays plates are taken out and equilibrated at RT for 20-30 minutes. Bright-Glo™ Luciferase Assay System is used to detect Luciferase production. After addition of Bright GLO detection reagent, the plates are incubated at RT for 20 minutes. The plates are read on an Envision plate reader to measure luminescence signal. The RLU signal is converted to POC relative to control and blank wells.
Compound dilution buffer:
Bright Glo Luciferase Assay System: Promega #E2620
Thaw lysis buffer provided in kit, add 100 mL lysis buffer to substrate powder.

Row | SMILES | IC50 [µM]
1 | CCS(=O)(=O)c1ccc(CNC(=O)N2CC(c3ccccc3)C(c3ncccc3C3CC3)C2)cc1 (stereo not drawn) [Example 5] | 2.8
2 | CCS(=O)(=O)c1ccc(CNC(=O)N2CC(c3ccccc3)C(c3ccnn3-c3ccccc3)C2)cc1 (stereo not drawn) [Example 12] | 2.1
3 | CCS(=O)(=O)c1ccc(CNC(=O)N2CC(c3ccccc3)C(c3ncccc3C(F)(F)F)C2)cc1 (stereo not drawn) [Example 14] | 1
4 | CCS(=O)(=O)c1ccc(CNC(=O)N2CC(c3cccc(Cl)c3)C(c3cc(C4CC4)nn3C(C)C)C2)cc1 (stereo not drawn) [Example 48] | 0.775
5 | CCS(=O)(=O)c1ccc(CNC(=O)N2CC(c3ccccc3)C(c3cc(C4CC4)nn3C(C)C)C2)nc1 (stereo not drawn) [Example 18] | 2.5
6 | CNS(=O)(=O)c1ccc(CNC(=O)N2CC(c3ccccc3)C(c3cc(C4CC4)nn3C(C)C)C2)cc1 (stereo not drawn) [Example 17] | 2.3
7 | CCS(=O)(=O)c1ccc(CNC(=O)N2CC(c3ccccc3)C(c3cn(C4CC4)nc3C(C)(C)C)C2)nc1 (stereo not drawn) [Example 35] | 1.9
8 | CCS(=O)(=O)c1ccc(CNC(=O)N2CC(c3ccccc3)C(c3cccc(OC(F)(F)F)c3)C2)nc1 (stereo not drawn) [Example 30] | 5.2
9 | CCS(=O)(=O)c1ccc(CNC(=O)N2CC(c3ccccc3)C(c3cc(C4CC4)nn3C(C)C)C2)cc1 (stereo not drawn) [Example 16A] | 0.625
10 | CCS(=O)(=O)c1ccc(CNC(=O)N2CC(C(C)C)C3(C2)Oc2c(C(C)C)ccc(C)c2C3=O)nc1 (stereo not drawn) [Example 11] | 0.62
11 | CCS(=O)(=O)c1ccc(CNC(=O)N2CC(c3ccccc3)C(c3cc(C4CC4)nn3C)C2)cc1 (stereo not drawn) [Example 6] | 2.6
12 | CCS(=O)(=O)c1ccc(CNC(=O)N2CC(c3ccccc3)C(c3cc(C)nn3C3CCCC3)C2)cc1 (stereo not drawn) [Example 15] | 0.565
13 | CCS(=O)(=O)c1ccc(CNC(=O)N2CC(c3ccccc3)C(c3csc4ccccc34)C2)cc1 (stereo not drawn) [Example 7] | 1.02
14 | CCS(=O)(=O)c1ccc(CNC(=O)N2CC(c3ccccc3)C(c3cc(C(C)(C)C)nn3C(C)C)C2)cc1 (stereo not drawn) [Example 38] | 0.78
15 | CCS(=O)(=O)c1ccc(CNC(=O)N2CC(c3cccc(C4CC4)n3)C(c3cn(C(C)C)nc3C(C)(C)C)C2)cc1 (stereo not drawn) [Example 57] | 1.05
16 | CCS(=O)(=O)c1ccc(CNC(=O)N2CC(c3cccc(C4CC4)n3)C(c3cc(C4CC4)nn3C(C)C)C2)nc1 (stereo not drawn) [Example 53] | 1.55

Row | SMILES | IC50 [µM]
17 | CCS(=O)(=O)c1ccc(CNC(=O)N2CC(c3cc(C)cc(C)n3)C(c3cc(C4CC4)nn3C(C)C)C2)nc1 (stereo not drawn) [Example 46] | 3.2
18 | CCS(=O)(=O)c1ccc(CNC(=O)N2CC(c3ccccc3)C(c3ccccc3)C2)cn1 (stereo not drawn) [Example 3] | 7.9
19 | CCS(=O)(=O)c1ccc(CNC(=O)N2CC(c3ccccc3)C(c3cn(C4CC4)nc3C(C)(C)C)C2)cc1 (stereo not drawn) [Example 33] | 0.51
20 | CCS(=O)(=O)c1ccc(CNC(=O)N2CC(c3ccccc3)C(c3ccccc3OC(F)(F)F)C2)nc1 (stereo not drawn) [Example 29] | 0.83
21 | CCS(=O)(=O)c1ccc(CNC(=O)N2CC(c3ccccc3)C(c3nc(C(C)C)nn3C3CC3)C2)cc1 (stereo not drawn) [Example 21] | 7.4
22 | CCS(=O)(=O)c1ccc(CNC(=O)N2CC(c3cccc(C4CC4)c3)C(c3cc(C4CC4)nn3C(C)C)C2)nc1 (stereo not drawn) [Example 52] | 1.48
23 | CCS(=O)(=O)c1ccc(CNC(=O)N2CC(c3ccccc3)C(c3cn(C(C)C)nc3C(C)(C)C)C2)cc1 (stereo not drawn) [Example 37] | 0.44
24 | CCS(=O)(=O)c1ccc(CNC(=O)N2CC(c3cccc(Cl)c3)C(c3nc(C4CC4)cs3)C2)cc1 (stereo not drawn) [Example 25] | 4.9
25 | CCS(=O)(=O)c1ccc(CNC(=O)N2CC(c3ccccc3)C(c3cccc(OC(F)(F)F)c3)C2)cc1 (stereo not drawn) [Example 27] | 2.4
26 | CCS(=O)(=O)c1ccc(CNC(=O)N2CC(c3ccccc3)C3(C2)Oc2c(C(C)C)ccc(C)c2C3=O)nc1 (stereo not drawn) [Example 45] | 0.26
27 | CCS(=O)(=O)c1ccc(CNC(=O)N2CC(c3ccccc3)C(c3cc(C(F)(F)F)cn(C(C)C)c3=O)C2)cc1 (stereo not drawn) [Example 55] | 1.5
28 | CCS(=O)(=O)c1cnc(CNC(=O)N2CC(c3ccccc3)C(c3cc(C4CC4)nn3C(C)C)C2)nc1 (stereo not drawn) [Example 24] | 13
29 | CCS(=O)(=O)c1ccc(CNC(=O)N2CC(c3ccccc3)C(c3nc(C4CC4)nn3C(C)C)C2)cc1 (stereo not drawn) [Example 22] | 8.7
30 | CCS(=O)(=O)c1ccc(CNC(=O)N2CC(c3ccccc3)C3(C2)Oc2c(C(C)C)ccc(C)c2C3=O)cc1 (stereo not drawn) [Example 43] | 0.149
31 | CCS(=O)(=O)c1ccc(CNC(=O)N2C[C@H](c3ccccc3)[C@@H](c3cc(C4CC4)nn3C(C)C)C2)cc1 [Example 16B] | 0.925
32 | CCS(=O)(=O)c1ccc(CNC(=O)N2CC(C(C)C)C3(C2)Oc2c(C(C)C)ccc(C)c2C3=O)cc1 (stereo not drawn) [Example 10] | 0.275

Second part, the compound after the results:

Row | IC50 [µM] | SMILES
33 | 1.45 | CCS(=O)(=O)c1ccc(CNC(=O)N2CC(c3ccccc3)C(c3cc(C(C)(C)C)nn3C(C)C)C2)nc1 (stereo not drawn) [Example 41]
34 | 1.3 | CNS(=O)(=O)c1ccc(CNC(=O)N2CC(c3ccccc3)C(c3cn(C4CC4)nc3C(C)(C)C)C2)cc1 (stereo not drawn) [Example 34]
35 | 1.95 | CCS(=O)(=O)c1ccc(CNC(=O)N2CC(c3ccccc3)C(c3nc(C(C)C)nn3C(C)(C)C)C2)cc1 (stereo not drawn) [Example 42]
36 | 1.75 | CCS(=O)(=O)c1ccc(CNC(=O)N2CC(c3cccc(Cl)c3)C(c3nc(C4CC4)nn3C(C)C)C2)nc1 (stereo not drawn) [Example 49]
37 | 0.865 | CCS(=O)(=O)c1ccc(CNC(=O)N2CC(c3cccc(C4CC4)n3)C(c3cn(C4CC4)nc3C(C)(C)C)C2)cc1 (stereo not drawn) [Example 56]
38 | 1.2 | CCS(=O)(=O)c1ccc(CNC(=O)N2CC(c3cccc(Cl)c3)C(c3cccc4cnccc34)C2)cc1 (stereo not drawn) [Example 32]
39 | 2.4 | CCS(=O)(=O)c1ccc(CNC(=O)N2CC(c3ccccc3)C(c3ccccc3)C2)cc1 (stereo not drawn) [Example 1]
40 | 0.85 | CCS(=O)(=O)c1ccc(CNC(=O)N2CC(c3ccccc3)C(c3ccccc3OC(F)(F)F)C2)cc1 (stereo not drawn) [Example 26]
41 | 1.4 | CCS(=O)(=O)c1ccc(CNC(=O)N2CC(c3cccc(Cl)c3)C(c3ccccc3C(F)(F)F)C2)nc1 (stereo not drawn) [Example 47]
42 | 3.9 | CCS(=O)(=O)c1ccc(CNC(=O)N2CC(c3ccccc3)C(c3cc(C)nn3C)C2)cc1 (stereo not drawn) [Example 4]
43 | 5.5 | CCS(=O)(=O)c1ccc(CNC(=O)N2CC(c3ccccc3)C(c3cc(C4CC4)nn3C(C)C)C2)cn1 (stereo not drawn) [Example 20]
44 | 1.15 | CCS(=O)(=O)c1ccc(CNC(=O)N2CC(c3ccccc3)C(c3cc(C(F)(F)F)cnc3OC)C2)cc1 (stereo not drawn) [Example 44]
45 | 4.1 | CCS(=O)(=O)c1ccc(CNC(=O)N2CC(c3ccccc3)C(c3nn(C(C)C)nc3C3CC3)C2)cc1 (stereo not drawn) [Example 19]
46 | 2.6 | CCS(=O)(=O)c1ccc(CNC(=O)N2CC(c3ccccc3)C(c3nc(C4CC4)nn3C(C)(C)C)C2)cc1 (stereo not drawn) [Example 36]
47 | 1.25 | CCS(=O)(=O)c1ccc(CNC(=O)N2C[C@@H](c3ccccc3)[C@H](c3cc(C4CC4)nn3C(C)C)C2)cc1 [Example 16C]
48 | 0.965 | CNS(=O)(=O)c1ccc(CNC(=O)N2CC(c3ccccc3)C(c3cn(C(C)C)nc3C(C)(C)C)C2)cc1 (stereo not drawn) [Example 39]
49 | 1.06 | CCS(=O)(=O)c1ccc(CNC(=O)N2CC(c3ccccc3)C(c3cc(C4CC4)nn3CC3CC3)C2)cc1 (stereo not drawn) [Example 28]
50 | 19 | CCS(=O)(=O)c1ccc(CNC(=O)N2CC(c3cccc(Cl)c3)C(c3nc(C(C)C)no3)C2)cc1 (stereo not drawn) [Example 13]
51 | 5.2 | CCS(=O)(=O)c1cnc(CNC(=O)N2CC(c3cccc(C4CC4)n3)C(c3cc(C4CC4)nn3C(C)C)C2)nc1 (stereo not drawn) [Example 54]
52 | 5 | CCS(=O)(=O)c1ccc(CNC(=O)N2CC(c3ccccc3)C(c3ccccc3)C2)nc1 (stereo not drawn) [Example 2]
53 | 1.3 | CCS(=O)(=O)c1ccc(CNC(=O)N2CC(c3ccccc3)C(c3cn(C(C)C)nc3C(C)(C)C)C2)nc1 (stereo not drawn) [Example 40]
54 | 1.55 | CCS(=O)(=O)c1ccc(CNC(=O)N2CC(c3ccccc3)C(c3cn(C)nc3C(C)(C)C)C2)cc1 (stereo not drawn) [Example 9]
55 | 2.2 | CCS(=O)(=O)c1ccc(CNC(=O)N2CC(c3ccccc3)C(c3cc(C4CC4)nn3CC3CC3)C2)nc1 (stereo not drawn) [Example 31]
56 | 6.2 | CCS(=O)(=O)c1ccc(CNC(=O)N2CC(c3ccccc3)C(c3nn(C(C)C)nc3C3CC3)C2)nc1 (stereo not drawn) [Example 23]
57 | 1.75 | CCn1nc(C2CC2)cc1C1CN(C(=O)NCc2ccc(S(=O)(=O)CC)cc2)CC1c1ccccc1 (stereo not drawn) [Example 8]
